Here are results for 25 molecules from patent US20100267697A1, “ION CHANNEL MODULATORS” (Wyeth, priority 2006, published 2010).

SMILES strings stand for the structures. Where a name gives a salt, the structure may show the parent alone. Read-outs that look alike come from different tables or passages of the source.

This experiment addresses T1, Cav2.2 (Homo sapiens, UniProt Q00975).
T1 construct: expressed in transfected cells; host or cells: HEK-293T/17 (transient, FuGENE 6)
The experiment in a line: HEK assay (whole-cell patch clamp, transiently transfected HEK-293T/17 cells, pulses P1 and P5). Type of experiment: cell-based. The note with it: holding potential −100 mV. Here is the method:
HEK-293T/17 cells were transiently transfected in a similar manner as described in FuGENE 6 Package Insert Version 7, April 2002, Roche Applied Science, Indianapolis, Ind. The cells were plated at 2.5×10^5 cells in 2 mL in a 6-well plate, incubated for one night, and achieved a ˜30-40% confluence. In a small sterile tube, sufficient serum-free medium was added as diluent for FuGENE Transfection Reagent (Roche Applied Science, Indianapolis, Ind.) to a total volume of 100 μL. To this medium was added 3 μL of FuGENE 6 Reagent. The mixture was tapped gently to mix. To the prediluted FuGENE 6 Reagent was added 2 μg of DNA solution (0.8-2.0 μg/μL). The DNA/Fugene 6 mixture was gently pipeted to mix the contents and incubated for about 15 minutes at room temperature. The complex mixture was then added to the HEK-293T/17 cells, distributed around the well, and swirled to ensure even dispersal. The cells were returned to the incubator for 24 hours. The transfected cells were then replated at density 2.5×10^5 in a 35 mm dish with 5 glass coverslips and grew in low serum (1%) media for 24 hours. Coverslips with isolated cells were then transferred into a chamber, and calcium channel (e.g., L-type, N-type, etc.) current or other currents for counter screening were recorded from the transiently transfected HEK-293T/17 cells.
The whole-cell voltage clamp configuration of the patch clamp technique was employed to evaluate voltage-dependent calcium currents essentially as described by Thompson and Wong (1991), J. Physiol., 439: 671-689, the entire disclosure of which is herein incorporated by reference. To record calcium channel (e.g., L-type, N-type, etc.) currents for evaluation of inhibitory potency of compounds (steady-state concentration-response analysis), five pulses of 20-30 ms voltage steps to about +10 mV (the peak of the current voltage relationship) were delivered at five Hz every 30 second from a holding potential at −100 mV. In order to obtain an estimate of the degree of use-dependent block of the test compounds, IC50 values were determined at the first and fifth pulse of the train (P1 and P5, respectively, in Table 2). Compound evaluations were carried out essentially as described by Sah D. W. and Bean B. P. (1994), Mol. Pharmacol., 45:84-92, the entire disclosure of which is herein incorporated by reference.
In general terms: Patch clamp records ionic current or voltage across a cell membrane.

[1] abbreviates: fifth pulse (P5) of 5 Hz train, read-out: HEK Cav2.2 P5 IC50.
Where [2] appears, read: first pulse (P1) of 5 Hz train, read-out: HEK Cav2.2 P1 IC50.

T1 sequence (Q00975 whole entry): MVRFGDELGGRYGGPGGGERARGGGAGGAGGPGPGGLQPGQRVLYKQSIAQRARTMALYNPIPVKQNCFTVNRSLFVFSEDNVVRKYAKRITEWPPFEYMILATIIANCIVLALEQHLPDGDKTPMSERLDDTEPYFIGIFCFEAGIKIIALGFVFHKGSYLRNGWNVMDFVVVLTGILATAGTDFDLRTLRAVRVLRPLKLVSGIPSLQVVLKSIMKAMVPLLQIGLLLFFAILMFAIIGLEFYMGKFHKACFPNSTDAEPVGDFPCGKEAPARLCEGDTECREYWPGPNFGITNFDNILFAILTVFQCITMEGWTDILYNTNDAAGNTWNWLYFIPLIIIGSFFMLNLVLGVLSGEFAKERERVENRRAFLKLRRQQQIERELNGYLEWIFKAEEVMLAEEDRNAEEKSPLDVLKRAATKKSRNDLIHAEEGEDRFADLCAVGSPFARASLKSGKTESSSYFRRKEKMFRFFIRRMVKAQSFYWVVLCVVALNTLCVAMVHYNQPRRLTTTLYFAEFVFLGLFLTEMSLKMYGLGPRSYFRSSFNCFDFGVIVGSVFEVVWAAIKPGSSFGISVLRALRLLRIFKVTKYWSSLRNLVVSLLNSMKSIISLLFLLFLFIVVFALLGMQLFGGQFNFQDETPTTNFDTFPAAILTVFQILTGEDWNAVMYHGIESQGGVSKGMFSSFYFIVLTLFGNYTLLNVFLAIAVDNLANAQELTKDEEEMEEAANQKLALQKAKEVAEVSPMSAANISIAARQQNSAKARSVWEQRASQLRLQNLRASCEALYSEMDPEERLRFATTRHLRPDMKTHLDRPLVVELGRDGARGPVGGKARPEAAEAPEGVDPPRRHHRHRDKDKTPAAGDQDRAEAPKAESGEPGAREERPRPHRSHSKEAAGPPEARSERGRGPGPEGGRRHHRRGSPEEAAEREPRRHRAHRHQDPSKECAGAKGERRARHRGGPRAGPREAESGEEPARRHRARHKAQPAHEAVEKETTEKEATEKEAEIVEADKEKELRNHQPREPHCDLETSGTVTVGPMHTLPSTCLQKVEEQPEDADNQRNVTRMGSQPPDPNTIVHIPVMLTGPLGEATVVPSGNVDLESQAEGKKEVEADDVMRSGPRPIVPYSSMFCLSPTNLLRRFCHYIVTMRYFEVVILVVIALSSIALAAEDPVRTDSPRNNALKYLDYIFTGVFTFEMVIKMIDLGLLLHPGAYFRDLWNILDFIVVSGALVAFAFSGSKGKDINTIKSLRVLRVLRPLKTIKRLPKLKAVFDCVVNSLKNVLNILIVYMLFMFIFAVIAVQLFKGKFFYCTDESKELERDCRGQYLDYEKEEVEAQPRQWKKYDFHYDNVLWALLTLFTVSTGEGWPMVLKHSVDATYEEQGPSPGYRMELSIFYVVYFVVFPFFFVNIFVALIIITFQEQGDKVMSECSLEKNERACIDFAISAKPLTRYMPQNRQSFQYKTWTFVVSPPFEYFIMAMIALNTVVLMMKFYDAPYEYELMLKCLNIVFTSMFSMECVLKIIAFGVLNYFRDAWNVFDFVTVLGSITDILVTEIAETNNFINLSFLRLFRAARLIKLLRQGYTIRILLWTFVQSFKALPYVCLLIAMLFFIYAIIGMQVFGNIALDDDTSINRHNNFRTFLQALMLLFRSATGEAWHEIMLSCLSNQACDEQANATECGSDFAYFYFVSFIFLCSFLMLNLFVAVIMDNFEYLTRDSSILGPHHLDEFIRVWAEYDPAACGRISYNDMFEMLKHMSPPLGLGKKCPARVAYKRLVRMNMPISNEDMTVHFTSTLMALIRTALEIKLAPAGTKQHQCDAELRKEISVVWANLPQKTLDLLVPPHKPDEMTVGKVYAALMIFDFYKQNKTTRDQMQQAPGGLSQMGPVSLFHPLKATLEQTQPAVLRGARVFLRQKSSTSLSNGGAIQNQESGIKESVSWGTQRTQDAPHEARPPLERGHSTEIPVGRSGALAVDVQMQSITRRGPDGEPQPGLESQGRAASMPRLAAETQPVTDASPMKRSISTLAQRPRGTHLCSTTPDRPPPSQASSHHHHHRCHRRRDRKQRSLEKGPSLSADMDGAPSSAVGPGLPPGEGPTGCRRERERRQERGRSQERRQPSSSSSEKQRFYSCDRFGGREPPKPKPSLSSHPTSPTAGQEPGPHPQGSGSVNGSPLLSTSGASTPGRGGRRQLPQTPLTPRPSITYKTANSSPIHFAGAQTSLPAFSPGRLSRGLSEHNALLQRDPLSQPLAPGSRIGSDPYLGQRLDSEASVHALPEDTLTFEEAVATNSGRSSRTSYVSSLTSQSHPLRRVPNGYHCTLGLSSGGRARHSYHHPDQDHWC
T1 sequence (P54284 whole entry partner): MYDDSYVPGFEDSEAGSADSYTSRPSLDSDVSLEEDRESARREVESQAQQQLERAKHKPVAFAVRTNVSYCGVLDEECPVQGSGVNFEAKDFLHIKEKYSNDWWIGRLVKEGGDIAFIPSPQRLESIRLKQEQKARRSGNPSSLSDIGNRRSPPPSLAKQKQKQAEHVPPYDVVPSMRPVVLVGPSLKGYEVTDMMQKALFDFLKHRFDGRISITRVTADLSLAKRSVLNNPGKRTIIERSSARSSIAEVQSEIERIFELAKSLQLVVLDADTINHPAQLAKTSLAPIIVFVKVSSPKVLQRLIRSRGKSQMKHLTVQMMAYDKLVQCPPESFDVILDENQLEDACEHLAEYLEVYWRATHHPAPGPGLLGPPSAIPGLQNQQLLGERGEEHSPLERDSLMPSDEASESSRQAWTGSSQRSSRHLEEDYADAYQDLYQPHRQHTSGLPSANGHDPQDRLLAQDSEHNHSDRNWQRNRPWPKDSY
T1 sequence (P54289 25-946 partner limits assumed): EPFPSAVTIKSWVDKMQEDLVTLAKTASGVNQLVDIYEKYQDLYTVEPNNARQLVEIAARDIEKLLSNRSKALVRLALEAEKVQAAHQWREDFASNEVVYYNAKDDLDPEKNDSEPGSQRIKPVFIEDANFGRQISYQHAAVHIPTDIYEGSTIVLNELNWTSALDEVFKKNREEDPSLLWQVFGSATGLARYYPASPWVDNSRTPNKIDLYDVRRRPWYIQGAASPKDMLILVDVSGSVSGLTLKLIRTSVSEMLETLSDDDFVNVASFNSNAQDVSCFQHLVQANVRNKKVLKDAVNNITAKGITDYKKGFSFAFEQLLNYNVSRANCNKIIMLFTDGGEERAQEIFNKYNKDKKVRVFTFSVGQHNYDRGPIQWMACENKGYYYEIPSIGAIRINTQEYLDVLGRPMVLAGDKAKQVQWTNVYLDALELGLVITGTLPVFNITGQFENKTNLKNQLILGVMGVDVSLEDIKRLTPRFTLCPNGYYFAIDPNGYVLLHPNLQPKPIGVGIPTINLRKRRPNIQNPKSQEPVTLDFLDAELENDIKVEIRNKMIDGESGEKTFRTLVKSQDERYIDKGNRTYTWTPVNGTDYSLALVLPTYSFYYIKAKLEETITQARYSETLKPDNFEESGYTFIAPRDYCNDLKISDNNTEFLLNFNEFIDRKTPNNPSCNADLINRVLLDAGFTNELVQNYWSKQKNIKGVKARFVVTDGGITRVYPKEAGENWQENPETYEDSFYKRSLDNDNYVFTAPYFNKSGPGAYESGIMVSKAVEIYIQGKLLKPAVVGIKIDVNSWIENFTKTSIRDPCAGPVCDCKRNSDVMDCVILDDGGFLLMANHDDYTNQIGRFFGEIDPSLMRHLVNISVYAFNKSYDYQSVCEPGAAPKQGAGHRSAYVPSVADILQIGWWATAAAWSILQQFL
T1 sequence (P54289 947-1103 partner limits assumed): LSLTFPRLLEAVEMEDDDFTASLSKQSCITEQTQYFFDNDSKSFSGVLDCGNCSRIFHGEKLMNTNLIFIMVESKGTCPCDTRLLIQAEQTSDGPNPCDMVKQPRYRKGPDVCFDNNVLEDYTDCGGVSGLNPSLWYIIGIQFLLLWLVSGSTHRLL

As a reminder, the IC50 is the concentration at which inhibition is half-maximal. As for `CC(C)(C)C(=O)N(Cc1ccc(N2CC[C@H](Oc3ccccn3)C2)nc1)c1ccc(F)cc1` (stereo in doubt) [Compound 50, N-(4-Fluorophenyl)-2,2-dimethyl-N-{6-[3-(pyridin-2-yloxy)-pyrrolidin-1-yl]-pyridin-3-ylmethyl}-propionamide], the IC50 was found to be 0.8 µM under setting [1] and 3.7 µM under setting [2].
In the same order, the values of `CC(C)(C)C(=O)N(Cc1cnc(N2CCCC2)s1)c1ccc(F)cc1` [Compound 1, N-(4-fluorophenyl)-2,2-dimethyl-N-(2-pyrrolidin-1-yl-thiazol-5-ylmethyl)-propionamide hydrochloride] are 8.3 µM and 20.3 µM.
For `CCN(CC)c1cccc(CN(C(=O)C(C)(C)C)c2ccc(F)cc2)n1` [Compound 4, N-(6-diethylamino-pyridin-2-ylmethyl)-N-(4-fluorophenyl)-2,2-dimethyl-propionamide hydrochloride], in that order: 0.8 µM and 2.9 µM.
For `CCN(CC)c1ccc(CN(C(=O)C(C)(C)C)c2ccc(F)cc2)cc1` [Compound 5, N-(4-Diethylaminobenzyl)-N-(4-fluorophenyl)-2,2-dimethyl-propionamide hydrochloride], in that order: 1.1 µM and 2.9 µM.
Turning to `CCN(c1cccc(CN(C(=O)C(C)(C)C)c2ccc(F)cc2)c1)C1CC1` [Compound 6, N-(3-(Cyclopropyl(ethyl)amino)-benzyl)-N-(4-fluorophenyl)-2,2-dimethyl-propionamide hydrochloride], the IC50 is, setting by setting: under setting [1], 1.5 µM; under setting [2], 6.2 µM.
For `CCN(c1ccc(CN(C(=O)C2CCN(Cc3ccccc3)CC2)c2ccc(F)cc2)cn1)C1CC1` [Compound 12, 1-benzyl-piperidine-4-carboxylic acid [6-(Cyclopropyl(ethyl)amino)-pyridin-3-ylmethyl]-(4-fluorophenyl)-amide dihydrochloride], in that order: 0.4 µM and 1 µM.
As to `CCN(c1ccc(CN(C(=O)CCC(C)C)c2ccc(F)cc2)cn1)C1CC1` [Compound 13, 4-methyl-pentanoic acid [6-(Cyclopropyl(ethyl)amino)-pyridin-3-ylmethyl]-(4-fluorophenyl)-amide hydrochloride], the IC50 under setting [1] was determined as 1.8 µM.
Take `CCN(c1ccc(CN(C(=O)C2Cc3ccccc3CN2)c2ccc(F)cc2)cn1)C1CC1` (stereo not drawn) [Compound 14, 1,2,3,4-tetrahydro-isoquinoline-3-carboxylic acid [6-(Cyclopropyl(ethyl)amino)-pyridin-3-ylmethyl]-(4-fluorophenyl)-amide dihydrochloride]: the IC50 under setting [1] was determined as 0.6 µM and the IC50 under setting [2] is 10.1 µM.
In the same order, the values of `CCN(c1ccc(CN(C(=O)C2Cc3ccccc3CN2C)c2ccc(F)cc2)cn1)C1CC1` (stereo not drawn) [Compound 15, 2-methyl-1,2,3,4-tetrahydro-isoquinoline-3-carboxylic acid [6-(Cyclopropyl(ethyl)amino)-pyridin-3-ylmethyl]-(4-fluorophenyl)-amide dihydrochloride] are 0.4 µM and 2.1 µM.
In the case of `CC(CC(=O)N(Cc1ccc(N(C)CCc2ccccn2)nc1)c1ccc(F)cc1)C(F)(F)F` (stereo not drawn) [Compound 23, 4,4,4-Trifluoro-N-(4-fluorophenyl)-3-methyl-N-{6-[methyl-(2-pyridin-2-yl-ethyl)-amino]-pyridin-3-ylmethyl}-butyramide], the IC50 under setting [1] stood at 1.1 µM.
On to `CCN(CC)c1ccc(CN(C(=O)C(C)(C)C)c2ccc(F)cc2C)cn1` [Compound 36, N-(6-Diethylamino-pyridin-3-ylmethyl)-N-(4-fluoro-2-methyl-phenyl)-2,2-dimethyl-propionamide], for which the IC50 runs as follows: under setting [1], 1.3 µM; under setting [2], 3.5 µM.
Turning to `CCN(CC)c1ccc(CN(C(=O)C(C)(C)C)c2ccccc2C(C)C)cn1` [Compound 37, N-(6-Diethylamino-pyridin-3-ylmethyl)-N-(2-isopropyl-phenyl)-2,2-dimethyl-propionamide], the IC50 runs as follows: under setting [1], 0.7 µM; under setting [2], 1.8 µM.
In the same order, the values of `CN(CCO)c1ccc(CN(C(=O)C(C)(C)C)c2ccc(F)cc2)cn1` [Compound 38, N-(4-Fluorophenyl)-N-{6-[(2-hydroxy-ethyl)-methyl-amino]-pyridin-3-ylmethyl}-2,2-dimethyl-propionamide] are 7.6 µM and 17.1 µM.
Take `Cc1ccc(OCCN(C)c2ccc(CN(C(=O)C(C)(C)C)c3ccc(F)cc3)cn2)nc1` [Compound 39, N-(4-Fluorophenyl)-2,2-dimethyl-N-(6-{methyl-[2-(5-methyl-pyridin-2-yloxy)-ethyl]-amino}-pyridin-3-ylmethyl)-propionamide]: the IC50 stood at 0.5 µM under setting [1] and 1 µM under setting [2].
`Cc1ccc(OCCN(C)c2ccc(CN(C(=O)C(C)(C)C)c3ccc(F)cc3)cn2)nn1` [Compound 40, N-(4-Fluorophenyl)-2,2-dimethyl-N-(6-{methyl-[2-(6-methyl-pyridazin-3-yloxy)-ethyl]-amino}-pyridin-3-ylmethyl)-propionamide]: the IC50 by setting is: under setting [1], 11.2 µM; under setting [2], 21 µM.
For the molecule `CCN(Cc1ccncc1)c1ccc(CN(C(=O)C(C)(C)C)c2ccc(F)cc2)cn1` [Compound 41, N-[6-(Ethyl-pyridin-4-ylmethyl-amino)-pyridin-3-ylmethyl]-N-(4-fluorophenyl)-2,2-dimethyl-propionamide], the IC50 worked out at 2 µM under setting [1] and 6.3 µM under setting [2].
With `CC(C)(C)C(=O)N(Cc1ccc(N2CCCC2)nc1)c1ccc(F)cc1` [Compound 42, N-(4-Fluorophenyl)-2,2-dimethyl-N-(6-pyrrolidin-1-yl-pyridin-3-ylmethyl)-propionamide], the IC50 is, setting by setting: under setting [1], 7.4 µM; under setting [2], 11.6 µM.
In the same order, the values of `CCC(C)(C)C(=O)N(Cc1ccc(N2CCN(S(C)(=O)=O)CC2)nc1)c1ccc(F)cc1` [Compound 43, N-(4-Fluorophenyl)-N-[6-(4-methanesulfonyl-piperazin-1-yl)-pyridin-3-ylmethyl]-2,2-dimethyl-butyramide] are 3 µM and 10.2 µM.
For `CC(=O)N1CCN(c2ccc(CN(C(=O)C(C)(C)C)c3ccc(F)cc3)cn2)CC1` [Compound 44, N-[6-(4-Acetyl-piperazin-1-yl)-pyridin-3-ylmethyl]-N-(4-fluorophenyl)-2,2-dimethyl-propionamide], in that order: 7.5 µM and 18.4 µM.
For `CCOC(=O)c1cn(C(C)(C)C(=O)N(Cc2ccc(N(CC)CC)nc2)c2ccc(F)cc2)nn1` [Compound 45, 1-{1-[(6-Diethylamino-pyridin-3-ylmethyl)-(4-fluorophenyl)-carbamoyl]-1-methyl-ethyl}-1H-[1,2,3]triazole-4-carboxylic acid ethyl ester], the IC50 reads like this: under setting [1], 2.5 µM; under setting [2], 10.6 µM.
For the molecule `CN(CCOCc1cccnc1)c1ccc(CN(C(=O)C(C)(C)C)c2ccc(F)cc2)cn1` [Compound 47, N-(4-Fluorophenyl)-2,2-dimethyl-N-(6-{methyl-[2-(pyridin-3-ylmethoxy)-ethyl]-amino}-pyridin-3-ylmethyl)-propionamide], the IC50 runs as follows: under setting [1], 1.6 µM; under setting [2], 9.5 µM.
For `CC(C)(C)C(=O)N(Cc1ccc(N2CCCC2CO)nc1)c1ccc(F)cc1` (stereo not drawn) [Compound 48, N-(4-Fluorophenyl)-N-[6-(2-hydroxymethyl-pyrrolidin-1-yl)-pyridin-3-ylmethyl]-2,2-dimethyl-propionamide], in that order: 4.2 µM and 19.8 µM.
In the case of `CC(C)(C)C(=O)N(Cc1ccc(N2CCC[C@H]2COc2ccccn2)nc1)c1ccc(F)cc1` [Compound 49, N-(4-Fluorophenyl)-2,2-dimethyl-N-{6-[2-(pyridin-2-yloxymethyl)-pyrrolidin-1-yl]-pyridin-3-ylmethyl}-propionamide], the IC50 was 0.6 µM under setting [1] and 2.3 µM under setting [2].
As for `CC(C)(C)C(=O)N(Cc1ccc(N2CC[C@H](O)C2)nc1)c1ccc(F)cc1` [Compound 51, N-(4-Fluorophenyl)-N-[6-(3-hydroxy-pyrrolidin-1-yl)-pyridin-3-ylmethyl]-2,2-dimethyl-propionamide], the IC50 was 12.8 µM under setting [1] and 34 µM under setting [2].
Regarding `CCN(CC)C1CCN(c2ccc(CN(C(=O)C(C)(C)C)c3ccc(F)cc3)cn2)C1` (stereo not drawn) [Compound 52, N-[6-(3-Diethylamino-pyrrolidin-1-yl)-pyridin-3-ylmethyl]-N-(4-fluorophenyl)-2,2-dimethyl-propionamide], the IC50 under setting [1] was determined as 6.3 µM and the IC50 under setting [2] stood at 17.1 µM.
